Source: patent US8647610B2, “Use of melanin biosynthesis inhibitors from korean ginseng and the cosmetic composition containing thereof for skin whitening” (Amorepacific Corporation, priority 2007, dated 2014)

Legend:
[1] = test system: Mouse melanocytes (Mel-Ab cells); experiment: Melanin production inhibitory effect using mouse melanocytes (Dooley method); assay type: cell-based; details: 10 ppm of test substance for 3 days, absorbance at 400 nm
human skin = experiment: Whitening effect on human skin after UVB-induced blackness; assay type: in vivo; details: 10 weeks, colorimeter
From the text: An opaque tape having a perforated hole of a 1.5 cm-diameter was attached to the upper arm of each of 12 healthy men. Then, UV rays (UVB) were irradiated to each of the subjects at a dose 1.5-2 times higher than the minimal erythema dose, thus inducing skin's blackness.
After the UV irradiation, a 1 wt % solution of each of the test samples (1,3-butyleneglycol: ethanol=7:3, as a vehicle) was applied to the skin of each subject. As negative and positive control groups, a 3 wt % solution of each of […] was applied to the skin of each subject. […] The skin color was measured with a colorimeter (Minolta, Japan) at a 1-week interval. Then, the difference (ΔL*) in skin color between the time point of application and the time point of completion of application of each sample was calculated according to the following equation 2, and the calculation results are shown in Table 2 below. Meanwhile, the whitening effect of each sample was evaluated by comparing ΔL* between the site applied with each sample and the control site.

[2] = 1 wt % solution in 1,3-butyleneglycol:ethanol=7:3 applied to UVB-irradiated upper arm of 12 healthy men

Molecule	Melanin production inhibitory rate (%) [1] [%]	Lightless (ΔL*) of skin color (human skin; [2])	inhibition at 10 ppm ([1]; Mus musculus, 72 h, read-out: Melanin production inhibitory rate (%)) [%]	Lightless (ΔL*) of skin color (human skin; 3 wt % solution (positive control) applied to UVB-irradiated upper arm of 12 healthy men)
20-O-β-D-glucopyranosyl-20(S)-protopanaxatriol [Example 1]	35.1	1.60 ± 0.13		
O=c1cc(CO)occ1O [Kojic acid, reference compound]			30.5	1.56 ± 0.11
20-O-β-D-glucopyranosyl-20(S)-protopanaxatriol [Example 3]	34.2	1.71 ± 0.13		
20-O-β-D-glucopyranosyl-20(S)-protopanaxatriol [Example 4]	34.9	1.64 ± 0.21		
20-O-β-D-glucopyranosyl-20(S)-protopanaxatriol [Example 2]	33.6	1.67 ± 0.17		
20-O-β-D-glucopyranosyl-20(S)-protopanaxatriol [ginsenoside F1]		higher than 1.6		
